Assay [1] deals with T1, Cytoplasmic tyrosine-protein kinase BMX (Homo sapiens) (UniProt P51813).
T1 sequence (whole entry): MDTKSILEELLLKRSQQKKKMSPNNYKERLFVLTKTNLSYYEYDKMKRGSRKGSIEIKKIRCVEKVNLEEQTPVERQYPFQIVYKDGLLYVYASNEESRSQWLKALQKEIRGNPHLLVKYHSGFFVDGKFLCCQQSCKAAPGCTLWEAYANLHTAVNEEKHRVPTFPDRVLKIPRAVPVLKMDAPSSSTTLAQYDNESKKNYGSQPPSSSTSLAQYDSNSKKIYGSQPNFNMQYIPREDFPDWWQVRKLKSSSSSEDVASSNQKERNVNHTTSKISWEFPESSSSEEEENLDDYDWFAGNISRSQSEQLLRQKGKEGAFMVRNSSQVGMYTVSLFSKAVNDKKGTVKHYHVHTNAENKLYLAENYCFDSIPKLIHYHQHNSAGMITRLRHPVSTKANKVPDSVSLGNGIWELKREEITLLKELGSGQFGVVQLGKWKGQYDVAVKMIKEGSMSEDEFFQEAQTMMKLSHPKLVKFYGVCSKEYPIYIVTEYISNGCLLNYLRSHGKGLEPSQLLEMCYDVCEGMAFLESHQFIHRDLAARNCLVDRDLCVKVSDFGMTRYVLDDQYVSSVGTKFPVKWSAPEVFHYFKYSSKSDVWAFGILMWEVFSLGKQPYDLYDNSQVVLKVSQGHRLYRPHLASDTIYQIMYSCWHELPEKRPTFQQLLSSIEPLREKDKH
In words: Inhibition of BMX (unknown origin) assessed as residual activity at 1000 nM by KINOMEscan analysis relative to control.

Assay [2] has as its target Mitogen-activated protein kinase 3 (Homo sapiens) (UniProt P27361). The assay is described as follows: Inhibition of ERK1 (unknown origin) assessed as residual activity at 1000 nM by KINOMEscan analysis relative to control.
In assay [3] the target is Cyclin-dependent kinase 17 (Homo sapiens) (UniProt Q00537). The assay is described as follows: Inhibition of PCTK2 (unknown origin) assessed as residual activity at 1000 nM by KINOMEscan analysis relative to control.
In assay [4] the target is T2, Phosphatidylinositol 5-phosphate 4-kinase type-2 gamma (Homo sapiens) (UniProt Q8TBX8).
T2 sequence (whole entry): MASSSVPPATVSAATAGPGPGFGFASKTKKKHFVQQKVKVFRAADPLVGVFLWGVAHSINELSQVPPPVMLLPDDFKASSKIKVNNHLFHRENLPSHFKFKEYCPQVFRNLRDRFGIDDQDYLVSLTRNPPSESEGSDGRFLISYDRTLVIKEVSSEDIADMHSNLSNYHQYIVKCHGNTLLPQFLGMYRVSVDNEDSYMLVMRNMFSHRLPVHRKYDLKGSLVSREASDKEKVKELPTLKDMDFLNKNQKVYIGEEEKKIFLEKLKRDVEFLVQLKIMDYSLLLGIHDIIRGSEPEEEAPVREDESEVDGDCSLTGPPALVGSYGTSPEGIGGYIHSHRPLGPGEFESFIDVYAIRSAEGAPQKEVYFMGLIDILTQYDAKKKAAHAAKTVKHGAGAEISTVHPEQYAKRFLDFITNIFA
In words: Inhibition of PIP5K2C (unknown origin) assessed as residual activity at 1000 nM by KINOMEscan analysis relative to control.

The target of assay [5] is T3, Serine/threonine-protein kinase Sgk2 (Homo sapiens) (UniProt Q9HBY8).
T3 sequence (whole entry): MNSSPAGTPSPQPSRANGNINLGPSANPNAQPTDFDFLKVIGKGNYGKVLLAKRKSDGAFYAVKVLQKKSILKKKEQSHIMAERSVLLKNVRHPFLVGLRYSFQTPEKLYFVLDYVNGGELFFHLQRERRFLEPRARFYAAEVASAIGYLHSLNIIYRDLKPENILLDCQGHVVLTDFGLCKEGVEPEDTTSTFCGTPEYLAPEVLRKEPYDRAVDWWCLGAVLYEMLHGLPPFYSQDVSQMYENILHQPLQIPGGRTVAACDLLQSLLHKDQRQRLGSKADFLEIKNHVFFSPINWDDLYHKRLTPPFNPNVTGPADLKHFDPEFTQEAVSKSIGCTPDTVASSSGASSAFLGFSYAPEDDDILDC
In words: Inhibition of SGK2 (unknown origin) assessed as residual activity at 1000 nM by KINOMEscan analysis relative to control.

For assay [6], the target named is T4, TGF-beta receptor type-1 (Homo sapiens) (UniProt P36897).
T4 sequence (whole entry): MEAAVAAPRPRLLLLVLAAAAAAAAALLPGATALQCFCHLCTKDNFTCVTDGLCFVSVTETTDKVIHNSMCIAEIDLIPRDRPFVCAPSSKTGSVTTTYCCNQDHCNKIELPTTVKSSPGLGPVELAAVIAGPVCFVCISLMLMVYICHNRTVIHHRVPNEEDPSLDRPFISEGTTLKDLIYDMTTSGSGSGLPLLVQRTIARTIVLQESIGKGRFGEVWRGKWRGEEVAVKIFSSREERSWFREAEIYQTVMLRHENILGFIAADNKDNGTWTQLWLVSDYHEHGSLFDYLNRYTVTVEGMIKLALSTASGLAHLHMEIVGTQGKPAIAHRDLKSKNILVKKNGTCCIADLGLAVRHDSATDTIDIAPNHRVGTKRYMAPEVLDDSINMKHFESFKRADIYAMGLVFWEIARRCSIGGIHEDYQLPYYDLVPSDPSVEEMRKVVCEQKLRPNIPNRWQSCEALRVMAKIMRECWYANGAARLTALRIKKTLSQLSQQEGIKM
In words: Inhibition of TGFBR1 (unknown origin) assessed as residual activity at 1000 nM by KINOMEscan analysis relative to control.

Assay [7] concerns the target NT-3 growth factor receptor (Homo sapiens) (UniProt Q16288). The assay is described as follows: Inhibition of TRKC (unknown origin) assessed as residual activity at 1000 nM by KINOMEscan analysis relative to control.
The target in assay [8] is Serine/threonine-protein kinase OSR1 (Homo sapiens) (UniProt O95747). In words: Inhibition of OSR1 (unknown origin) assessed as residual activity at 1000 nM by KINOMEscan analysis relative to control.

Each structure is given as a SMILES string.

Chain of Serine/threonine-protein kinase OSR1 (Homo sapiens) (O95747 whole entry, looked up): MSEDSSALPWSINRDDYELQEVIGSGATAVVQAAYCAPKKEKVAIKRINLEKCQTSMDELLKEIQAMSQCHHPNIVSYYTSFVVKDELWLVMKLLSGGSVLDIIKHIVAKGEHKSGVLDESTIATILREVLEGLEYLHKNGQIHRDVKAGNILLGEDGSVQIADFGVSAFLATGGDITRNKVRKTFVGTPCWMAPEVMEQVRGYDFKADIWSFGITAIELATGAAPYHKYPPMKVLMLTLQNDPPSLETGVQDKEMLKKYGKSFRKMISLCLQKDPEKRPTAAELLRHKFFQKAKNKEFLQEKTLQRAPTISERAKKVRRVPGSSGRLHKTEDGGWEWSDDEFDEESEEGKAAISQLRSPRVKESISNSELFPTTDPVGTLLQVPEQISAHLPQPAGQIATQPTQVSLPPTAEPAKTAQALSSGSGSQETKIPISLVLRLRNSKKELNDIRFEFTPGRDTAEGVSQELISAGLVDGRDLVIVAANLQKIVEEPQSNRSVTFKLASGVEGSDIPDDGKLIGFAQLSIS
Chain of Mitogen-activated protein kinase 3 (Homo sapiens) (P27361 whole entry): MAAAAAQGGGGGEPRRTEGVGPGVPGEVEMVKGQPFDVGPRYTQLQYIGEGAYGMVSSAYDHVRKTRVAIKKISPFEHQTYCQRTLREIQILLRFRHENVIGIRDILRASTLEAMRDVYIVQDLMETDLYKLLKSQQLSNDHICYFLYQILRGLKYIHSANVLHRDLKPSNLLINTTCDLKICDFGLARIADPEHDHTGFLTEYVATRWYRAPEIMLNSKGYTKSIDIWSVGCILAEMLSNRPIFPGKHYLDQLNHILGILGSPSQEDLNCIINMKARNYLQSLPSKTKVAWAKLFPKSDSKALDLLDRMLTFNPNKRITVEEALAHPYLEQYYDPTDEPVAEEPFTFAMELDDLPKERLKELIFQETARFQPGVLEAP
Chain of NT-3 growth factor receptor (Homo sapiens) (Q16288 32-839 limits assumed): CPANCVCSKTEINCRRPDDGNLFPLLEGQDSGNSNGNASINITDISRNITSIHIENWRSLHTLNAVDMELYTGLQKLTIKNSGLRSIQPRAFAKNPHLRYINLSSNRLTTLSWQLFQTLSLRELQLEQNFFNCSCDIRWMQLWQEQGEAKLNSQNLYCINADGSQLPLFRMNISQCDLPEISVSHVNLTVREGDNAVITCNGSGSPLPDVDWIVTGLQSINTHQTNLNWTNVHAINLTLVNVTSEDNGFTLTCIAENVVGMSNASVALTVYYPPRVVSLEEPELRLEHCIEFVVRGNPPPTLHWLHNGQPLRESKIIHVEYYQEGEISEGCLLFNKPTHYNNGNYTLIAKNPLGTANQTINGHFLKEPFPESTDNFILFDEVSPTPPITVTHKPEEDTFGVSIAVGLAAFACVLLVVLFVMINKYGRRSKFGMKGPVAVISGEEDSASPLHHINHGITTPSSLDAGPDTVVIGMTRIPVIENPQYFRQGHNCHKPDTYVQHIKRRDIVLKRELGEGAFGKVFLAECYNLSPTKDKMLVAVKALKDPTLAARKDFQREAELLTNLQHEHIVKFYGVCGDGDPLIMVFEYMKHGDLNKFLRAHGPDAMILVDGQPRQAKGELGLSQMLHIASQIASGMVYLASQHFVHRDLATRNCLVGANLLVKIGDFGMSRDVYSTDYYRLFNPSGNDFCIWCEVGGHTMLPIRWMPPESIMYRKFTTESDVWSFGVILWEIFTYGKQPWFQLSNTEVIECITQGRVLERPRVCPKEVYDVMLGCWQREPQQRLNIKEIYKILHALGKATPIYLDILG
Chain of Cyclin-dependent kinase 17 (Homo sapiens) (Q00537 whole entry, looked up): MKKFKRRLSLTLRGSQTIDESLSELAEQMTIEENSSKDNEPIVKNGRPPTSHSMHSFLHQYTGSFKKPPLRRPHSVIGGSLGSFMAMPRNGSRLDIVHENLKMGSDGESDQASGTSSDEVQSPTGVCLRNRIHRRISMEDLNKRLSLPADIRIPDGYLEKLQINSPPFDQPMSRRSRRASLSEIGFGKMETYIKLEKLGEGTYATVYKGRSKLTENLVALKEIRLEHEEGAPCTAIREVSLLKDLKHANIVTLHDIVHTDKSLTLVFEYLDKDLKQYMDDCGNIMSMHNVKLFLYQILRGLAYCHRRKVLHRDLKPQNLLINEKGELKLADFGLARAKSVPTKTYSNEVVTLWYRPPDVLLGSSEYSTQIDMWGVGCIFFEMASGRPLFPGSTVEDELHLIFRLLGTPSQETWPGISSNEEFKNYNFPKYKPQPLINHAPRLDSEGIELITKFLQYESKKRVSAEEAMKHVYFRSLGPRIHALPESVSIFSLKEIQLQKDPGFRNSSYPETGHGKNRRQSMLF

`COc1cc2nc(C)nc(N[C@H](C)c3cccc(-c4cn[nH]c4)c3)c2cc1OC`: the Activity turned out to be 100% in assay [1]; 100% in assay [2]; 83% in assay [3]; 69% in assay [4]; 94% in assay [5]; 100% in assay [6]. Further, the values for the Activity in assay [7] and in assay [8] were 88% and 93%, respectively.
Regarding `COc1cc2ncnc(N[C@H](C)c3cccc4ccccc34)c2cc1OC`, the Activity turned out to be 97% in assay [1]; 100% in assay [2]; 100% in assay [3]; 80% in assay [4]; 51% in assay [5]; 100% in assay [6]. Also, the Activity in assay [7] is 95%; in assay [8], 97%.

The values above are taken from ChEMBL document CHEMBL5678818, “Discovery of potent SOS1 inhibitors that block RAS activation via disruption of the RAS-SOS1 interaction” (Proc Natl Acad Sci U S A, 2019).
